# Experimental data from patent US20050239756A1, “Methods of treating various vitamin D metabolism conditions with 1alpha-hydroxyvitamin D2” (Bone Care International, Inc., priority 2004, published 2005).
# Where “and” joins values, the source holds several entries; their conditions need not be identical. Equal entries are not always repeated.
# Tests used:
# [1] = test system: subjects with chronic kidney disease with elevated blood PTH; experiment: 24-week double-blinded placebo-controlled study of oral doxercalciferol in secondary hyperparathyroidism with mild to moderate chronic kidney disease (Example 2); type: in vivo, human; details: for Mean (±SE) plasma iPTH: baseline 219.1±22.3 pg/mL
# From the text: 1α-(OH)D2 (doxercalciferol) was used as a treatment for hyperparathyroidism associated with chronic kidney disease was confirmed in a study involving 55 adults, ages 18-85 years, with mild to moderate chronic kidney disease. The subjects had plasma intact parathyroid hormone (iPTH) levels above 85 pg/mL and completed an eight-week baseline period and then 24 weeks of therapy with either orally administered doxercalciferol or placebo. The initial dose of test drug was 2 capsules daily (totaling 1.0 μg for subjects randomized to doxercalciferol treatment), with increases in steps of one capsule per day permitted after four weeks. The maximum dosage was limited to 10 capsules per day (5.0 μg/day of doxercalciferol). Subjects were monitored at regular intervals for plasma iPTH, serum calcium and phosphorus, 24-hour and fasting urinary calcium, bone-specific serum markers, plasma total 1α,25-(OH)2D, and routine blood chemistries and hematologies. Glomerular filtration rate (GFR) was measured prior to beginning the treatment and at study termination. No physical or biochemical differences were detectable between the two treatment groups prior to starting treatment. […] On enrollment, each subject was assigned, at random, in double-blinded fashion, to one of two treatment groups. Both treatment groups completed an 8-week Baseline Period (Weeks −8 to 0) and then underwent therapy with either orally administered doxercalciferol or placebo for a 24-week Treatment Period (Weeks 1 to 24). Irrespective of treatment group assignment, each subject discontinued any 1α,25-dihydroxivitamin D3 (1α,25(OH)2D3) therapy for the duration of the study. Throughout the Baseline Period and the subsequent Treatment Period, subjects were monitored at regular intervals for plasma iPTH, serum calcium, serum phosphorus, and 24-hour and fasting urinary calcium, phosphorus and creatinine. Routine blood chemistries and hematologies, bone-specific serum markers, and plasma total 1α,25(OH)2D were also monitored at selected intervals. Glomerular filtration rate (GFR) was measured prior to beginning treatment and at termination. Subjects qualified for inclusion in the Baseline Period if they were aged 18 to 85 years, had mild to moderate CR1 with serum creatinine between 1.8 to 5.0 mgldL (for men) or 1.6 to 4.0 mg/dL (for women), and had elevated plasma iPTH values (>85 pg/mL). Subjects receiving ongoing treatment with estrogen were required to maintain the same estrogen dosing regimen throughout the study. Subjects who began dialysis treatment or underwent renal transplantation were required to prematurely terminate participation. […] Patients were also excluded who had hypercalcemia, hyperthyroidism, sarcoidosis, malignancy requiring chemotherapy, hormonal therapy and/or radiation treatment, chronic gastrointestinal disease (i.e., malabsorption, surgery affecting absorption, and chronic ulcerative colitis), hepatic impairment, or any other condition which may have put the patient at undue risk. […] The two studies were conducted under double-blind conditions in each geographical region. Assignments of subjects to the two treatment groups were made randomly, by geographical region, in order of enrollment. The randomization was accomplished in subgroups of size 10, 5 subjects assigned to each of the two treatment groups. The randomization was performed by an independent statistician using the Statistical Analysis System (SAS). 1α-hydroxyvitamin D2 (available as doxercalciferol from Bone Care International) was formulated for oral administration as soft elastic gelatin capsules in units of 0.5 mcg/capsule. […] The initial dose of test drug (doxercalciferol or placebo) was 2 capsules (totaling a 1.0 μg dose for subjects receiving doxercalciferol) every day before breakfast. This dosage was increased as necessary at monthly intervals, to suppress plasma iPTH levels by at least 30% from baseline. […]
# [2] = test system: subjects with low serum calcium; experiment: 24-week oral doxercalciferol therapy in subjects with low serum calcium (Example 3); type: in vivo, human
# Procedure: 1α-(OH)D2 (doxercalciferol) is used as a treatment for subjects with low serum calcium in a study involving 50 adults, ages 18-85 years. The subjects have serum calcium levels below 8.6 mg/dL and complete an eight-week baseline period and then 24 weeks of therapy with orally administered doxercalciferol. The initial dose of 1α-(OH)D2 is 2 capsules daily (totaling 1.0 μg), with increases in steps of one capsule per day permitted after four weeks. The maximum dosage is limited to 10 capsules per day (5.0 μg/day of doxercalciferol). Subjects are monitored at regular intervals for plasma iPTH, serum calcium and phosphorus, 24-hour and fasting urinary calcium, bone-specific serum markers, plasma total 1α,25-(OH)2D, and routine blood chemistries and hematologies.
# [3] = test system: subjects with low serum 1,25-dihydroxyvitamin D; experiment: 24-week oral doxercalciferol therapy in subjects with low serum 1,25-dihydroxyvitamin D (Example 4); type: in vivo, human
# Procedure: 1α-(OH)D2 (doxercalciferol) is used as a treatment for subjects with low serum 1,25-dihydroxyvitamin D in a study involving 50 adults, ages 18-85 years. The subjects have serum 1,25-dihydroxyvitamin D levels below […] and complete an eight-week baseline period and then 24 weeks of therapy with orally administered doxercalciferol. The initial dose of 1α-(OH)D2 is 2 capsules daily (totaling 1.0 μg), with increases in steps of one capsule per day permitted after four weeks. The maximum dosage is limited to 10 capsules per day (5.0 μg/day of doxercalciferol). Subjects are monitored at regular intervals for plasma iPTH, serum calcium and phosphorus, 24-hour and fasting urinary calcium, bone-specific serum markers, plasma total 1α,25-(OH)2D, and routine blood chemistries and hematologies.
# [4] = test system: postmenopausal osteoporotic outpatients; experiment: 104-week placebo-controlled study of oral 1α-(OH)D2 in postmenopausal osteoporotic outpatients (Example 1); type: in vivo, human
# From the text: 1α-(OH)D2 was used to treat osteoporosis was confirmed in a study involving 60 postmenopausal osteoporotic outpatients. […] Exclusion criteria encompassed significant medical disorders and recent use of medications known to affect bone or calcium metabolism. On admission to the study, each subject was assigned at random to one of two treatment groups; one group received up to a 104-week course of therapy with 1α-(OH)D2; the other received only placebo therapy. All subjects received instruction on selecting a daily diet containing 700-900 mg of calcium and were advised to adhere to this diet over the course of the study. Compliance to the diet was verified at regular intervals by 24-hour food records and by interviews with each subject. During the treatment period, subjects from one group orally self-administered 1α-(OH)D2 at an initial dosage of 1.0 μg/day for one week, and increased the dosage to 2.0, 3.0, 4.0 μg/day in each of the following weeks, to a maximum dosage of 5.0 μg/day. The dosage for any given subject was increased in this way until the rate of urinary calcium excretion was elevated to approximately 275-300 mg/24 hours, at which point the subject held the dosage constant at the highest level attained. Subjects from the second group self-administered a matching placebo medication every day, titrating the apparent dosage upwards in the same manner as subjects being treated with 1α-(OH)D2. Spinal and femoral neck BMD were measured in all subjects by DEXA at the beginning of the study, and at six-month intervals thereafter. Intestinal calcium absorption was estimated in all subjects by a single isotope technique at the beginning of the study, and at 12-month intervals. Serum levels of vitamin D metabolites were determined by radioreceptor binding assays at baseline and at six-month intervals. Serum osteocalcin, serum PTH and urine hydroxyproline also were determined at baseline and at six-month intervals. Other blood and urine chemistries were monitored at regular intervals during the treatment period. These chemistries included serum calcium, serum ionized calcium, urine calcium, blood urea nitrogen, serum creatinine and creatinine clearance. Kidney-ureter-bladder (KUB) x-rays were obtained at baseline and at 12-month intervals thereafter.
# PTH levels = details: Malluche et al., Nephrol. Dial. Transplant., 2004; cited from earlier work
# [5] = Treatment Period, active treatment
# [6] = after the 24 week treatment period
smiles,measurement,setting,value
"C=C1/C(=C\C=C2/CCC[C@]3(C)[C@@H]([C@H](C)/C=C/[C@H](C)C(C)C)CC[C@@H]23)C[C@@H](O)C[C@@H]1O [1α-(OH)D2, 1α-hydroxyvitamin D2]",Renal function and rates of adverse events vs placebo,[1]; 24 weeks,No differences between treatment groups
same,Subjects achieving plasma iPTH suppression of ≧30% from baseline (percentage),"[1]; 27 subjects in the active group, mean of Weeks 20 and 24, placebo 7.1%",74%
same,Episodes of hypercalciuria (24-hour urine calcium >200 mg or fasting urine Ca/Cr ratio above 0.25),[1]; Treatment Period,No episodes
same,Episodes of hyperphosphatemia (serum phosphorus >5.0 mg/dL),[1]; [5],15 episodes
same,Subjects with hyperphosphatemia (serum phosphorus >5.0 mg/dL),[1]; [5],10 subjects
same,"Mean serum osteocalcin, upward trend from baseline",[1]; Week 4,~10%
same,Mean (±SE) plasma iPTH,[1]; Week 4,165 ± 15 pg/mL
same,Mean reduction of plasma iPTH from baseline,[1]; Week 8,26.3%
same,"Mean serum osteocalcin, decline from baseline",[1]; Week 24,about 20%
same,Mean (±SE) serum phosphorus,"[1]; Week 24, baseline 4.02±0.15 mg/dL",4.27 ± 0.13 mg/dL
same,Mean (±SE) serum calcium,"[1]; Week 24, baseline 8.74±0.12 mg/dL",9.14 ± 0.11 mg/dL
same,Mean (±SE) plasma iPTH,"[1]; Week 24, p<0.001 vs. baseline",118 ± 17 pg/mL
same,Mean reduction (suppression) of plasma iPTH from baseline,"[1]; Week 24, p<0.001",45.6%
same,Mean alkaline phosphatase,"[1]; Weeks 16 and 24, p<0.05",reduced significantly from baseline
same,"Mean serum total 1,25-dihydroxyvitamin D levels","[1]; all treatment weeks, did not differ significantly between groups",increased significantly from baseline
same,Mean reduction in serum bone-specific alkaline phosphatase (BSAP) from baseline,[1]; by Week 16,19.7±3.7%
same,Mean reduction in serum bone-specific alkaline phosphatase (BSAP) from baseline,[1]; by Week 24,27.9±4.6%
same,"Rise in mean serum 1,25-dihydroxyvitamin D from baseline levels","[1]; during treatment, no change in placebo group",~50%
same,iPTH increase in an individual subject,"[1]; end of treatment, one subject",3.9%
same,iPTH reduction in individual subjects not reaching ≧30% suppression,"[1]; end of treatment, single subjects, listed as doxercalciferol",24.0% and 24.2% and 19.6%
same,Duration of hypercalcemia episode,[1]; episode with onset in Week 4,5 weeks
same,Maximum serum calcium recorded during hypercalcemia episode,"[1]; episode with onset in Week 4, one subject",10.9 mg/dL
same,Duration of hypercalcemia episode,[1]; episode with onset in Week 16,8 weeks
same,Maximum serum calcium recorded during hypercalcemia episode,"[1]; episode with onset in Week 16, one subject",11.0 mg/dL
same,Episodes of hypercalcemia (corrected serum calcium >10.7 mg/dL),"[1]; in one subject, onsets Week 4 and Week 16",Two
same,Subjects achieving plasma iPTH suppression of ≧30% from baseline (number),"[1]; of 27 subjects in the active group, mean of Weeks 20 and 24",20 subjects
same,Serum calcium in the excepted subject during treatment,[1]; one subject with pre-treatment serum calcium as high as 10.7 mg/dL,11.0 mg/dL
same,iPTH increase in a subject at discontinuation,"[1]; one subject, discontinued in Week 5",22.8%
same,Plasma iPTH suppression from baseline in a subject at discontinuation,"[1]; one subject, discontinued in Week 8",27.9%
same,Plasma iPTH suppression in a subject at discontinuation,"[1]; one subject, discontinued in Week 17",44.4%
same,Serum C- and N-telopeptides and bone-specific alkaline phosphate,"[1]; relative to baseline and placebo treatment, p<0.01",decreased
same,Average serum phosphorous levels,[2]; [6],2.4 to 5 mg/dL
same,"Serum bone-specific markers alkaline phosphatase, N- and C-telopeptides, and osteocalcin",[2]; [6],average normal levels
same,"Serum 1,25-dihydroxyvitamin D levels between doses",[2]; between doses of 1α-(OH)D2,within the patients normal historical physiological range
same,Average serum phosphorous levels,[3]; [6],2.4 to 5 mg/dL
same,"Serum bone-specific markers alkaline phosphatase, N- and C-telopeptides, and osteocalcin",[3]; [6],average normal levels
same,"Serum 1,25-dihydroxyvitamin D levels between doses",[3]; between doses of 1α-(OH)D2,within the patients normal historical physiological range
same,Increase in intestinal absorption of orally administered Ca relative to placebo control,"[4]; after 52 weeks, P<0.001",40%
same,Increase in intestinal absorption of orally administered Ca relative to placebo control,"[4]; after 104 weeks, P<0.5",29%
same,Decrease in serum levels of PTH relative to placebo therapy,[4]; at 1-4 weeks (so in the source),25%
same,"Increase in mean serum total 1α,25-(OH)2D3 relative to placebo therapy","[4]; at 24 months, P<0.01",49%
same,Decrease in serum levels of PTH relative to placebo therapy,[4]; at 52 weeks,17%
same,"Increase in mean serum total 1α,25-(OH)2D3 relative to placebo therapy","[4]; at six months, P<0.05",21%
same,Mean urine calcium during initial titration period,[4]; dosage titrated 1.0 to 5.0 μg/day,increased during the initial titration period in a dose-response fashion
same,"Serum 1α,25-(OH)2D2",[4]; during treatment,dramatic rise
same,"Mild hypercalcemia (10.2-10.4 mg/dL), subjects affected",[4]; first year,four
same,"Moderate hypercalcemia (10.4-10.8 mg/dL), subjects affected","[4]; over the course of the study, prescribed dosages 5.0 μg/day",two
same,"Hypercalciuria observed occasionally, subjects affected",[4]; over the two-year study,17 subjects
same,"Marked hypercalcemia (>10.8 mg/dL), subjects affected","[4]; prescribed dosage 5.0 μg/day, in association with an intercurrent illness",one
same,"Mild hypercalcemia (10.2-10.4 mg/dL), subjects affected",[4]; second year,two
same,Bone mineral density (BMD) in the L2-L4 vertebrae,"[4]; two-year study, decreased with placebo, difference P<0.05 after 24 months",progressively increased
"C=C1/C(=C\C=C2/CCC[C@]3(C)[C@@H]([C@H](C)CCCC(C)(C)O)CC[C@@H]23)C[C@@H](O)C[C@@H]1O [calcitriol, 1,25-dihydroxyvitamin D3]",Effect of treatment on PTH levels,PTH levels,over suppression of PTH levels
